Here are results for 19 compounds from US20250235460A1, “COMBINATION THERAPY USING GLUCOSE-DEPENDENT INSULINOTROPIC POLYPEPTIDE RECEPTOR ANTAGONIST COMPOUNDS AND GLP-1 RECEPTOR AGONIST COMPOUNDS” (Pfizer Inc., priority 2024, published 2025).

Experiment [1] deals with human GLP-1R (Homo sapiens, UniProt P43220, G168S). The experiment in a line: CHO GLP-1R Clone H6 cAMP HTRF agonist assay (Assay 1, high receptor density). As to conditions: for EC50: CHO GLP-1R clone H6, cAMP HTRF, geometric mean; for Emax: read-out: Assay 1 Emax (%). Type of experiment: cell-based. The procedure, abridged: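 Replicate runs were pooled. Potencies were averaged geometrically and maximal efficacies arithmetically, then rounded to two significant figures.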
Sequence of human GLP-1R (Homo sapiens, UniProt P43220, G168S) (P43220 24-463 G168S): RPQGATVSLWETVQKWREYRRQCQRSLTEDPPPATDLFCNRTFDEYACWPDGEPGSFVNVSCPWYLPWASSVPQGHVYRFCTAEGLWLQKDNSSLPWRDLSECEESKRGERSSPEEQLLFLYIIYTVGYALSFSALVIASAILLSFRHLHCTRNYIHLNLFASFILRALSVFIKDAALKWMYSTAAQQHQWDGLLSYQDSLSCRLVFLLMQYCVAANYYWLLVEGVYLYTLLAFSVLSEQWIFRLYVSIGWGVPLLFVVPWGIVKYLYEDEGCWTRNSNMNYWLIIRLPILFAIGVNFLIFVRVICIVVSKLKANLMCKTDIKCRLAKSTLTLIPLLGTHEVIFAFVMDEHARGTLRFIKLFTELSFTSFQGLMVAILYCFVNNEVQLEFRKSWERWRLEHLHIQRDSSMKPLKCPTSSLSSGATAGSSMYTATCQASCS
(In general: TR-FRET usually uses a lanthanide donor and a delayed reading to cut background.)

Experiment [2] addresses human GLP-1R (Homo sapiens, UniProt P43220, L260F). The experiment in a line: CHO GLP-1R Clone C6 cAMP HTRF agonist assay (Assay 2, low receptor density). Type of experiment: cell-based. As to conditions: for EC50: CHO GLP-1R clone C6, cAMP HTRF, geometric mean; for Emax: CHO GLP-1R clone C6, arithmetic mean, relative to saturating GLP-1 (1 μM). The text has this:
In Table 5 and Table 6, assay data are presented to two (2) significant figures as the geometric mean (EC50s) and arithmetic mean (Emax) based on the number of replicates listed (Number). A blank cell means there was no data for that Example or the Emax was not calculated.

The mark [3] stands for this setting: CHO GLP-1R clone H6, arithmetic mean, relative to saturating GLP-1 (1 μM).

In general, EC50 refers to the midpoint of the concentration-response curve. The Emax is the size of the effect at its maximum, as opposed to the concentration needed.

Sequence of human GLP-1R (Homo sapiens, UniProt P43220, L260F) (P43220 24-463 L260F): as the sequence (P43220 24-463 G168S) above, with S145G, L237F counted along it

Take `CCn1cnnc1Cn1c(CN2CCN(c3cccc(OCc4ccc(Cl)cc4F)n3)C[C@@H]2C)nc2ccc(C(=O)O)cc21` [Compound 245B, 2-{[(2S)-4-{6-[(4-chloro-2-fluorobenzyl)oxy]pyridin-2-yl}-2-methylpiperazin-1-yl]methyl}-1-[(4-ethyl-4H-1,2,4-triazol-3-yl)methyl]-1H-benzimidazole-6-carboxylic acid]: the EC50 is 1.5 nM at human GLP-1R [1] and 35 nM at human GLP-1R [2]. In addition, the maximal effect (Emax) at human GLP-1R [1] (setting [3]) is 74%; at human GLP-1R [2], 89%.

As to `COCCn1c(CN2CCN(c3cccc(OCc4ccc(Cl)cc4F)n3)[C@@H](C)C2)nc2ccc(C(=O)O)cc21` [Compound 183B, 2-{[(3S)-4-{6-[(4-chloro-2-fluorobenzyl)oxy]pyridin-2-yl}-3-methylpiperazin-1-yl]methyl}-1-(2-methoxyethyl)-1H-benzimidazole-6-carboxylic acid], the EC50 on human GLP-1R [1] is 180 nM; on human GLP-1R [2] it was 3500 nM. The Emax turned out to be 78% at human GLP-1R [1] (setting [3]) and 90% at human GLP-1R [2].

With `COC[C@@H]1C[C@H]1Cn1c(CN2CCC(c3cccc(OCc4ccc(Cl)cc4F)n3)CC2)nc2ccc(C(=O)O)cc21` [Compound 197B, 2-[(4-{6-[(4-chloro-2-fluorobenzyl)oxy]pyridin-2-yl}piperidin-1-yl)methyl]-1-{[(1R,2R)-2-(methoxymethyl)cyclopropyl]methyl}-1H-benzimidazole-6-carboxylic acid], the EC50 worked out at 8.1 nM at human GLP-1R [1] and 220 nM at human GLP-1R [2]. For the same compound, the Emax stood at 74% at human GLP-1R [1] (setting [3]) and 93% on human GLP-1R [2].

Take `COCCn1c(CN2CCC(c3cccc(OCc4ccc(C#N)cc4)n3)CC2)nc2cc(F)c(C(=O)O)cc21` [Compound 211B, 2-[(4-{6-[(4-cyanobenzyl)oxy]pyridin-2-yl}piperidin-1-yl)methyl]-5-fluoro-1-(2-methoxyethyl)-1H-benzimidazole-6-carboxylic acid]: the EC50 on human GLP-1R [1] came out at 50 nM; on human GLP-1R [2] it was 870 nM. Also, the values for the Emax at human GLP-1R [1] (setting [3]) and at human GLP-1R [2] were 81% and 83%, respectively.

For `N#Cc1ccc(COc2cccc(C3CCN(Cc4nc5ccc(C(=O)O)nc5n4Cc4cnco4)CC3)n2)c(F)c1` [Compound 248B, 2-[(4-{6-[(4-cyano-2-fluorobenzyl)oxy]pyridin-2-yl}piperidin-1-yl)methyl]-3-(1,3-oxazol-5-ylmethyl)-3H-imidazo[4,5-b]pyridine-5-carboxylic acid], the EC50 at human GLP-1R [1] was found to be 2 nM; at human GLP-1R [2], 32 nM. Moreover, the Emax at human GLP-1R [1] (setting [3]) worked out at 82%; at human GLP-1R [2] it was 79%.

`O=C(O)c1ccc2nc(CN3CCC(c4cccc(OCc5ccc(Cl)cc5F)n4)CC3)n(CCN3CCOC3=O)c2c1` [Compound 295B, 2-[(4-{6-[(4-chloro-2-fluorobenzyl)oxy]pyridin-2-yl}piperidin-1-yl)methyl]-1-[2-(2-oxo-1,3-oxazolidin-3-yl)ethyl]-1H-benzimidazole-6-carboxylic acid]: the EC50 on human GLP-1R [1] came to 87 nM. On human GLP-1R [2], this compound gave an EC50 of 3100 nM and an Emax of 110%.

Consider `N#Cc1ccc(COc2cccc(C3CCN(Cc4nc5ccc(C(=O)O)cc5n4Cc4cnco4)CC3)n2)c(F)c1` [Compound 141B, 2-[(4-{6-[(4-cyano-2-fluorobenzyl)oxy]pyridin-2-yl}piperidin-1-yl)methyl]-1-(1,3-oxazol-5-ylmethyl)-1H-benzimidazole-6-carboxylic acid], for which the EC50 at human GLP-1R [1] is 6 nM; at human GLP-1R [2], 150 nM. Also, the Emax on human GLP-1R [1] (setting [3]) is 73%; at human GLP-1R [2] it was 84%.

With `CO[C@H]1C[C@@H](Cn2c(CN3CCC(c4cccc(OCc5ccc(Cl)cc5F)n4)CC3)nc3ccc(C(=O)O)cc32)C1` [Compound 195B, 2-[(4-{6-[(4-chloro-2-fluorobenzyl)oxy]pyridin-2-yl}piperidin-1-yl)methyl]-1-[(cis-3-methoxycyclobutyl)methyl]-1H-benzimidazole-6-carboxylic acid], the EC50 stood at 110 nM on human GLP-1R [1] and 4400 nM at human GLP-1R [2]. Further, the Emax on human GLP-1R [1] (setting [3]) stood at 68%; on human GLP-1R [2], 110%.

On to `O=C(O)c1ccc2nc(CN3CCC(c4cccc(OCc5ccc(Cl)cc5F)n4)CC3)n(CCn3cncn3)c2c1` [Compound 292B, 2-[(4-{6-[(4-chloro-2-fluorobenzyl)oxy]pyridin-2-yl}piperidin-1-yl)methyl]-1-[2-(1H-1,2,4-triazol-1-yl)ethyl]-1H-benzimidazole-6-carboxylic acid], for which the EC50 is 55 nM at human GLP-1R [1] and 1700 nM on human GLP-1R [2]. Further, the Emax amounted to 71% at human GLP-1R [1] (setting [3]) and 99% on human GLP-1R [2].

Regarding `N#Cc1ccc(COc2cccc(C3CCN(Cc4nc5ccc(C(=O)O)cc5n4CC4CCOC4)CC3)n2)c(F)c1` (stereo not shown) [Compound 363B, 2-[(4-{6-[(4-cyano-2-fluorobenzyl)oxy]pyridin-2-yl}piperidin-1-yl)methyl]-1-(tetrahydrofuran-3-ylmethyl)-1H-benzimidazole-6-carboxylic acid], the Emax on human GLP-1R [1] (setting [3]) stood at 65%; on human GLP-1R [2], 71%.

For `O=C(O)c1ccc2nc(CN3CCC(c4cccc(OCc5ccc(Cl)cc5F)n4)CC3)n(Cc3c[nH]nn3)c2c1` [Compound 298B, 2-[(4-{6-[(4-chloro-2-fluorobenzyl)oxy]pyridin-2-yl}piperidin-1-yl)methyl]-1-(1H-1,2,3-triazol-4-ylmethyl)-1H-benzimidazole-6-carboxylic acid], the EC50 is 110 nM on human GLP-1R [1] and 2700 nM on human GLP-1R [2]. The Emax at human GLP-1R [1] (setting [3]) came out at 74%.

On to `N#Cc1ccc(COc2cccc(C3CCN(Cc4nc5ccc(C(=O)O)nc5n4Cc4ncco4)CC3)n2)c(F)c1` [Compound 168B, 2-[(4-{6-[(4-cyano-2-fluorobenzyl)oxy]pyridin-2-yl}piperidin-1-yl)methyl]-3-(1,3-oxazol-2-ylmethyl)-3H-imidazo[4,5-b]pyridine-5-carboxylic acid], for which, on human GLP-1R [1] (setting [3]), the “Assay 1 Emax (%)” value stood at 79%. For the same compound, on human GLP-1R [2], the EC50 was determined as 1700 nM and the maximum response (Emax) was 88%.

As for `CC[C@H]1CN(c2cccc(OCc3ccc(Cl)cc3F)n2)CCN1Cc1nc2ccc(C(=O)O)cc2n1CCOC` [Compound 353B, 2-{[(2S)-4-{6-[(4-chloro-2-fluorobenzyl)oxy]pyridin-2-yl}-2-ethylpiperazin-1-yl]methyl}-1-(2-methoxyethyl)-1H-benzimidazole-6-carboxylic acid], the figures for the EC50 on human GLP-1R [1] and at human GLP-1R [2] were 5.6 nM and 200 nM, respectively. In addition, the Emax at human GLP-1R [1] (setting [3]) came out at 80%; at human GLP-1R [2] it was 89%.

For the compound `O=C(O)c1ccc2nc(CN3CCC(c4cccc(OCc5ccc(Cl)cc5F)n4)CC3)n(Cc3ccon3)c2c1` [Compound 344B, 2-[(4-{6-[(4-chloro-2-fluorobenzyl)oxy]pyridin-2-yl}piperidin-1-yl)methyl]-1-(1,2-oxazol-3-ylmethyl)-1H-benzimidazole-6-carboxylic acid], the EC50 on human GLP-1R [1] stood at 37 nM; on human GLP-1R [2], 1200 nM. The values for the Emax at human GLP-1R [1] (setting [3]) and at human GLP-1R [2] were 69% and 83%, respectively.

Consider `CCn1cncc1Cn1c(CN2CCC(c3cccc(OCc4ccc(F)cc4F)n3)CC2)nc2ccc(C(=O)O)cc21` [Compound 150B, 2-[(4-{6-[(2,4-difluorobenzyl)oxy]pyridin-2-yl}piperidin-1-yl)methyl]-1-[(1-ethyl-1H-imidazol-5-yl)methyl]-1H-benzimidazole-6-carboxylic acid], for which the figures for the EC50 at human GLP-1R [1] and on human GLP-1R [2] were 110 nM and 3000 nM, respectively. The maximal effect (Emax) amounted to 71% at human GLP-1R [1] (setting [3]) and 92% at human GLP-1R [2].

Take `O=C(O)c1ccc2nc(CN3CCC(c4cccc(OCc5ccc(Cl)cc5F)n4)CC3)n(C[C@@H]3CCCO3)c2c1` [Compound 116B, 2-[(4-{6-[(4-chloro-2-fluorobenzyl)oxy]pyridin-2-yl}piperidin-1-yl)methyl]-1-[(2S)-tetrahydrofuran-2-ylmethyl]-1H-benzimidazole-6-carboxylic acid]: the EC50 on human GLP-1R [1] was 930 nM; at human GLP-1R [2], 9000 nM. The results for the Emax on human GLP-1R [1] (setting [3]) and at human GLP-1R [2] were 86% and 100%, respectively.

In the case of `C[C@H]1CN(c2cccc(OCc3ccc(F)cc3F)n2)CCN1Cc1nc2ccc(C(=O)O)cc2n1C[C@@H]1CCO1` [Compound 134B, 2-{[(2S)-4-{6-[(2,4-difluorobenzyl)oxy]pyridin-2-yl}-2-methylpiperazin-1-yl]methyl}-1-[(2S)-oxetan-2-ylmethyl]-1H-benzimidazole-6-carboxylic acid], the values for the EC50 at human GLP-1R [1] and on human GLP-1R [2] were 300 nM and 7700 nM, respectively. Moreover, the Emax at human GLP-1R [1] (setting [3]) stood at 92%; on human GLP-1R [2] it was 100%.

For `CCn1nncc1Cn1c(CN2CCN(c3cccc(OCc4ccc(C#N)cc4F)n3)CC2)nc2ccc(C(=O)O)cc21` [Compound 159B, 2-[(4-{6-[(4-cyano-2-fluorobenzyl)oxy]pyridin-2-yl}piperazin-1-yl)methyl]-1-[(1-ethyl-1H-1,2,3-triazol-5-yl)methyl]-1H-benzimidazole-6-carboxylic acid], the EC50 at human GLP-1R [1] was 0.5 nM; on human GLP-1R [2], 22 nM. For the same compound, the Emax at human GLP-1R [1] (setting [3]) worked out at 73%.

For `CC(c1cnn(C)n1)n1c(CN2CCC(c3cccc(OCc4ccc(Cl)cc4F)n3)CC2)nc2ccc(C(=O)O)cc21` (stereo not shown) [Compound 335B, 2-[(4-{6-[(4-chloro-2-fluorobenzyl)oxy]pyridin-2-yl}piperidin-1-yl)methyl]-1-[1-(2-methyl-2H-1,2,3-triazol-4-yl)ethyl]-1H-benzimidazole-6-carboxylic acid], the EC50 at human GLP-1R [1] turned out to be 5 nM; at human GLP-1R [2] it was 41 nM. The maximal response (Emax) on human GLP-1R [1] (setting [3]) is 82%; on human GLP-1R [2], 77%.
